Measurements reported in BindingDB's records for doi:10.1016/j.bmcl.2004.04.008 (Fudan University, 2004).

Key:
[1] = Concentration required to protect the cell against HIV-1 strain IIIB viral cytopathogenicity by 50% in MT-4 cells
[2] = Inhibitory concentration against SO561945 (HIV 1 mutant RT) viral infection of MT-4 cells
[3] = as above; remark: listed apart in the source

Structure (SMILES)	IC50 [1]	IC50 [2]	IC50 [3]
Cc1c(Sc2ccccc2)n(COCCO)c(=O)[nH]c1=O	5060 nM	> 405000 nM	–
COc1ccc(C(=O)CSc2nc(Cc3cccc4ccccc34)c(C)c(=O)[nH]2)cc1	–	–	370 nM
CCc1c(Cc2cccc3ccccc23)nc(SCC(=O)c2ccc(F)cc2)[nH]c1=O	78 nM	24200 nM	–
COC(=O)CSc1nc(Cc2cccc3ccccc23)c(C(C)C)c(=O)[nH]1	4490 nM	> 179000 nM	–
CCc1c(Cc2cccc3ccccc23)nc(SCC(=O)c2ccc(C)cc2)[nH]c1=O	–	–	320 nM
CC(=O)CSc1nc(Cc2cccc3ccccc23)c(C(C)C)c(=O)[nH]1	410 nM	> 43100 nM	–
CCc1c(Cc2cccc3ccccc23)nc(SCC(=O)c2ccc(OC)cc2)[nH]c1=O	–	> 178000 nM	45 nM
COc1ccc(C(=O)CSc2nc(Cc3cccc4ccccc34)c(C(C)C)c(=O)[nH]2)cc1	30 nM	5820 nM	–
CCc1c(Cc2cccc3ccccc23)nc(SCC(=O)c2ccc(Cl)cc2)[nH]c1=O	260 nM	> 56000 nM	–
CCOC(=O)CSc1nc(Cc2cccc3ccccc23)c(C)c(=O)[nH]1	–	–	7000 nM
COC(=O)CSc1nc(Cc2cccc3ccccc23)c(C)c(=O)[nH]1	–	–	6990 nM
CCOC(=O)CSc1nc(Cc2cccc3ccccc23)c(C(C)C)c(=O)[nH]1	–	> 175000 nM	1410 nM
Cc1ccc(C(=O)CSc2nc(Cc3cccc4ccccc34)c(C)c(=O)[nH]2)cc1	–	–	670 nM
Cc1c(Cc2cccc3ccccc23)nc(SCC(=O)c2ccc(F)cc2)[nH]c1=O	–	–	180 nM
CC(C)c1c(Cc2cccc3ccccc23)nc(SCC(=O)c2ccc(F)cc2)[nH]c1=O	78 nM	188000 nM	–
CC(C)c1c(Cc2cccc3ccccc23)nc(SCC(=O)c2ccc(Cl)cc2)[nH]c1=O	320 nM	–	> 270000 nM
Cc1c(Cc2cccc3ccccc23)nc(SCC(=O)c2ccc(Cl)cc2)[nH]c1=O	–	–	550 nM
Cc1ccc(C(=O)CSc2nc(Cc3cccc4ccccc34)c(C(C)C)c(=O)[nH]2)c(C)c1	–	2670 nM	240 nM
CC(C)c1c(Cc2cccc3ccccc23)nc(SCC(=O)c2ccccc2)[nH]c1=O	46 nM	19600 nM	–
CCc1c(Cc2cccc3ccccc23)nc(SCC(=O)OC)[nH]c1=O	–	–	4720 nM
CC(=O)CSc1nc(Cc2cccc3ccccc23)c(C)c(=O)[nH]1	–	–	1120 nM
Cc1ccc(C(=O)CSc2nc(Cc3cccc4ccccc34)c(C(C)C)c(=O)[nH]2)cc1	–	–	240 nM
O=c1[nH]cnc2c1ncn2[C@H]1CC[C@@H](CO)O1 [BMY-40900]	5370 nM	7150 nM	–
